From patent US5736559A, “Biphenyl derivatives, pharmaceutical compositions containing these compounds and processes for preparing them” (Karl Thomae GmbH, priority 1991, dated 1998)
Where a name gives a salt, the structure may show the parent alone.

Assays:
[1] = system: thrombocyte (platelet) aggregation; test: Antithrombotic activity: collagen-induced thrombocyte aggregation in platelet rich plasma (Born and Cross); assay type: cell-based; conditions: Homo sapiens, platelet rich plasma from healthy test subjects, 10 minutes at 37° C. preincubation, 50% change in optical density, read-out: Inhibition of platelet aggregation EC50
Description: 2. Antithrombotic activity Method: Thrombocyte aggregation is measured in platelet rich plasma from healthy test subjects using the Born and Cross method (J. Physiol. 170, 397 (1964)). In order to inhibit coagulation the blood is mixed with sodium citrate 3.14% in a ratio by volume of 1:10. Collagen-induced aggregation: The course of the decrease in optical density of the platelet suspension is photometrically measured and recorded after the addition of the substance which triggers aggregation. The rate of aggregation is deduced from the gradient angle of the density curve. The point on the curve where there is maximum transmittance is used to calculate the optical density. The quantity of collagen used is as little as possible but sufficient to give an irreversible reaction curve. Standard commercial collagen produced by Hormonchemie of Munich is used. Before the addition of the collagen the plasma is incubated for 10 minutes at 37° C. with the substance. From the measurements obtained, an EC50 is determined graphically, relating to a 50% change in optical density in terms of the inhibition of aggregation.

[2] = target: Fibrinogen binding to human thrombocytes; test: Fibrinogen binding to human thrombocytes; conditions: 125I fibrinogen; gel-filtered human platelets; ADP; 20 minutes at ambient temperature; read-out: Fibrinogen binding test IC50
Description: Fibrinogen binding to human thrombocytes The blood obtained by puncturing an antecubital vein is anticoagulated with trisodium citrate (final concentration: 13 mM) and centrifuged for 10 minutes at 170 xg. The supernatant platelet-rich plasma is poured onto a Sepharose 2B column (Pharmacia) and eluted with a solution of 90 mM common salt, 14 mM trisodium citrate, 5 mM glucose and 50 mM Tris(hydroxymethyl)aminomethane, adjusted to pH 7.4. The gel-filtered platelets (GFP) appearing before the plasma proteins are used for the binding experiments. 50 μl of a 60 mM calcium chloride solution, 50 μl of a 0.6 mM adenosine diphosphate solution, 100 μl of substance solution or solvent and 50 μl of fibrinogen solution (containing 3 μg of ^125 I fibrinogen) are added to 750 μl of GFP and incubated for 20 minutes at ambient temperature. The non-specific binding is determined in the presence of 3 mg/ml of cold fibrinogen. 900 μl of the incubated material are carefully pipetted onto 250 μl of silicon oil (AP 38: AR 20, 1:2 v/v, Wacker Chemie) in Eppendorf tubes and centrifuged for 2 minutes at 10,000 xg. The aqueous supernatant and some of the oil are drawn off, the tips of the tubes are cut off together with the platelet pellet and the quantity of bound fibrinogen is determined in a gamma counter. The concentration of substance which brings about a 50% inhibition in fibrinogen binding is determined from a series of concentrations and is given as the IC50 value.

[3] = system: mice; test: tolerability after intravenous administration in mice; assay type: in vivo; conditions: for sedation during the injection phase: mouse, in vivo, iv, 30 mg/kg
[4] = system: collagen-induced thrombocyte aggregation; test: collagen-induced thrombocyte aggregation ex vivo in Rhesus monkeys after oral administration; conditions: oral administration of 1 mg/kg
Description: Moreover, the compound of Example 8(5) inhibits the collagen-induced thrombocyte aggregation ex vivo in Rhesus monkeys, for example, after oral administration of 1 mg/kg for longer than 8 hours.

[5] = system: mouse; test: tolerability after peroral administration in the mouse; assay type: in vivo; conditions: 2.0 g/kg
[6] = system: rat; test: tolerability after peroral administration in the rat; assay type: in vivo; conditions: 2.0 g/kg

Row | Structure (SMILES) | EC50 [1] [nM] | IC50 [2] [nM] | further results
1 | N=C(N)c1ccc(-c2ccc(NC(=O)CCCC(=O)O)cc2)cc1 [1(1), 4-amidino-4'-(4-carboxybutyrylamino) biphenyl] | 1100 | 160 | sedation during the injection phase [3]: 1 or 2 animals were sedated
2 | COc1ccc(CCNC(=O)C(CC(=O)O)NC(=O)Cc2ccc(-c3ccc(C(=N)N)cc3)cc2)cc1.Cl (stereo not shown) [2(11), 4-amidino-4'-[[2-carboxy-1-[[2-(4-methoxyphenyl)-ethyl]aminocarbonyl]ethylamino]carbonylmethyl]biphenyl hydrochloride] | 2200 | 360 | sedation during the injection phase [3]: 1 or 2 animals were sedated
3 | COC(=O)CCCCNC(=O)c1ccc(-c2ccc(C(=N)N)cc2)cc1 [6(72), 4-amidino-4'-[(4-methoxycarbonylbutyl)amino-carbonyl]biphenyl hydrochloride] | 3400 | 7400 | 
4 | COC(=O)CN1CCN(C(=O)c2ccc(-c3ccc(C(=N)N)cc3)cc2)CC1 [6(74), 4-amidino-4'-[(4-methoxycarbonylmethylpiperazino)-carbonyl]biphenyl dihydrochloride] | 3200 | 24000 | 
5 | COC(=O)CCN1CCN(C(=O)c2ccc(-c3ccc(C(=N)N)cc3)cc2)CC1 [6(75), 4-amidino-4'-[[(4-(2-methoxycarbonylethyl)-piperazino]carbonyl]biphenyldi hydrochloride] | 3200 | 27000 | 
6 | COC(=O)C1CCN(C(=O)c2ccc(-c3ccc(C(=N)N)cc3)cc2)CC1 [6(81), 4-amidino-4'-[(4-methoxycarbonylpiperidino)-carbonyl]biphenyl] | 34000 | 25000 | 
7 | N=C(N)c1ccc(-c2ccc(C(=O)NCC(N)=O)cc2)cc1 [6(86), 4-amidino-4'-(aminocarbonylmethylaminocarbonyl)-biphenyl hydrochloride] | 21000 | 5700 | 
8 | COC(=O)C1CCC(NC(=O)c2ccc(-c3ccc(C(=N)N)cc3)cc2)CC1 (stereo not shown) [6(87), 4-amidino-4'-[(4-methoxycarbonylcyclohexyl)-aminocarbonyl]biphenyl hydrochloride] | 60 | 3800 | 
9 | NCc1ccc(-c2ccc(C(=O)N3CCC(CC(=O)O)CC3)cc2)cc1 [10(1), 4-aminomethyl-4'-[(4-carboxymethylpiperidino)-carbonyl]biphenyl hydrochloride] | 1800 | 800 | 
10 | Cl.N=C(N)c1ccc(-c2ccc(C(=O)N3CCC(CC(=O)O)CC3)cc2)cc1 [Example 1(39), 4-amidino-4'-[(4-carboxymethylpiperidino)-carbonyl]biphenyl hydrochloride] | 100 | 24 | animals died ([3]; mice, intravenous, 60 mg/kg, three animals tested): none of the three animals tested died
11 | N=C(N)c1ccc(-c2ccc(CC(=O)NCCC(=O)O)cc2)cc1 [Example 1, 4-Amidino-4'-[[(2-carboxyethyl)aminocarbonyl]methyl]-biphenyl] | 1100 | 290 | 
12 | N=C(N)c1ccc(-c2ccc(OCCCCCC(=O)O)cc2)cc1 [Example 2, 4-Amidino-4'-(5-carboxypentyloxy)biphenyl hydrochloride] | 10000 | 210 | 
13 | COc1ccc(CCNC(=O)C(CC(=O)O)NC(=O)CNC(=O)c2ccc(-c3ccc(C(=N)N)cc3)cc2)cc1 (stereo not shown) [Example 3, 4-Amidino-4'-[[[2-carboxy-1-[[2-(4-methoxyphenyl)-ethyl]aminocarbonyl]ethylamino]carbonylmethyl]-aminocarbonyl]biphenyl hydrochloride] | 16000 | 1300 | 
14 | COC(=O)CCCCCOc1ccc(-c2ccc(C(=N)N)cc2)cc1 [Example 6, Di-[4-Amidino-4'-(5-methoxycarbonylpentyloxy)biphenyl]dihydrogencarbonate] | 2600 | 570 | 
15 | COC(=O)CC1CCN(C(=O)c2ccc(-c3ccc(C(=N)NC(=O)OC)cc3)cc2)CC1 [Example 8(5), 4-(N-methoxycarbonylamidino)-4'-[(4-methoxycarbonylmethylpiperidino)carbonyl]biphenyl] |  |  | duration of inhibition of collagen-induced thrombocyte aggregation ex vivo [4]: > 8 h; toxic effects [5]: no toxic effects were observed; toxic effects [6]: no toxic effects were observed
